ChEMBL document CHEMBL1149983, “Probing the S-1 subsite selectivity of an industrial alkaline protease in anhydrous t-butanol” (Bioorg Med Chem Lett, 1993)
Peptide text beside a SMILES is read from it. * marks the point of attachment. Cbz = O=C(OCc1ccccc1)*

Experiment: Reaction time taken for industrial alkaline protease catalyzed synthesis using CBz-Phe-OCP as acyl donor and Gly-NH2 as nucleophile

Row | Compound | Reaction time [h]
1 | NC(=O)CNC(=O)CNC(=O)[C@H](Cc1ccccc1)NC(=O)OCc1ccccc1 (Cbz-Phe-Gly-Gly-NH2) | 1.5
2 | NC(=O)CNC(=O)[C@H](Cc1ccccc1)NC(=O)OCc1ccccc1 (Cbz-Phe-Gly-NH2) | 1
3 | CCCOC(=O)[C@@H](C)NC(=O)[C@H](CC(=O)OCc1ccccc1)NC(=O)OCc1ccccc1 | 2
4 | CC(C)C[C@H](NC(=O)CNC(=O)[C@H](Cc1ccccc1)NC(=O)OCc1ccccc1)C(N)=O (Cbz-Phe-Gly-Leu-NH2) | 1

The next lines start with the values.

Row | Reaction time [h] | Compound
5 | 2 | NC(=O)[C@@H](Cc1ccccc1)NC(=O)[C@H](Cc1ccccc1)NC(=O)OCc1ccccc1
6 | 1 | CC(C)C[C@H](NC(=O)[C@H](Cc1ccccc1)NC(=O)OCc1ccccc1)C(N)=O
7 | 1 | NC(=O)[C@H](Cc1ccccc1)NC(=O)CNC(=O)[C@H](Cc1ccccc1)NC(=O)OCc1ccccc1 (Cbz-Phe-Gly-Phe-NH2)
8 | 1.5 | CC(C)C[C@@H](NC(=O)[C@H](Cc1ccccc1)NC(=O)OCc1ccccc1)C(N)=O
9 | 1 | NC(=O)[C@H](Cc1ccccc1)NC(=O)[C@H](Cc1ccccc1)NC(=O)OCc1ccccc1
